Results reported in ChEMBL document CHEMBL4321795, “Metabolism by Aldehyde Oxidase: Drug Design and Complementary Approaches to Challenges in Drug Discovery” (J Med Chem, 2019).

How the values were obtained:
[1] = target: T1, Aldehyde oxidase (Homo sapiens, UniProt Q06278); test: Substrate activity at aldehyde oxidase in human liver S9 fractions assessed as enzyme-mediated 2-oxo metabolite formation by measuring half life at 1 uM after 10 to 120 mins by liquid chromatography-tandem mass spectrometry; format: ADME, subcellular; settings: s9, 1 µM
T1 sequence (Q06278 whole entry): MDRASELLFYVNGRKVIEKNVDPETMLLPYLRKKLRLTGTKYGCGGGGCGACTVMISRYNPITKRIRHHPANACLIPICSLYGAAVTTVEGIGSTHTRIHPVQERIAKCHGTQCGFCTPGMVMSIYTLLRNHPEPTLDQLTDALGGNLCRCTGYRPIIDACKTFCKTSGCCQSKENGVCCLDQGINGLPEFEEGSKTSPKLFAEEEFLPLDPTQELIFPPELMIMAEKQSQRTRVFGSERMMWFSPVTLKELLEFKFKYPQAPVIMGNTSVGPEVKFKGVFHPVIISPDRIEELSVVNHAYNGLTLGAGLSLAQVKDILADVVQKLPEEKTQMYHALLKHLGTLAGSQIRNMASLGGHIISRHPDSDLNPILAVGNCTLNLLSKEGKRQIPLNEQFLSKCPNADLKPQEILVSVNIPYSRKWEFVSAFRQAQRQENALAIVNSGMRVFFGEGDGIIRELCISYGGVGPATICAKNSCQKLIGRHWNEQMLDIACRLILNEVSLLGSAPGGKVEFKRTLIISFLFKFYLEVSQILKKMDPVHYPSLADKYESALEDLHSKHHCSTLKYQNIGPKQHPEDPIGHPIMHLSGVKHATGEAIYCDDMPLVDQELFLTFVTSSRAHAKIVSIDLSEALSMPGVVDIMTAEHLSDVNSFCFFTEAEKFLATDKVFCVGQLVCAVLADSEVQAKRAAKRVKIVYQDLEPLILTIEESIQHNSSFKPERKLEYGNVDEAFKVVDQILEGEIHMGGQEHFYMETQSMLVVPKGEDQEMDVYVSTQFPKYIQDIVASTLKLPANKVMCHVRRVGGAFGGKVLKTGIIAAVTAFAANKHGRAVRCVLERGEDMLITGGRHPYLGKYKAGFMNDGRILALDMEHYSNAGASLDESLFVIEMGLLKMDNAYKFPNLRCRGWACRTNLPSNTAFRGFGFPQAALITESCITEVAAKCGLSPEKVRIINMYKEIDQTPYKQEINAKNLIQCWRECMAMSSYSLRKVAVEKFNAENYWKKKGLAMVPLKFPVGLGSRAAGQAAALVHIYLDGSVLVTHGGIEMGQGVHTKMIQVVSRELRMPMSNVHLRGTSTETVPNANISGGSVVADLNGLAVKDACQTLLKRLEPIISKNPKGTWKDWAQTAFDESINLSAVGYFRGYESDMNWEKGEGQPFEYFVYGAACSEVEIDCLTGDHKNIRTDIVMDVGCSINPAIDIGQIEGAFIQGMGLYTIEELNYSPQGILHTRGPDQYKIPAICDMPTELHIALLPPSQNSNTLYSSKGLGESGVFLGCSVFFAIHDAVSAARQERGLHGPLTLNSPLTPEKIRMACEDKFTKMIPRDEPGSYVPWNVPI

[2] = Oral bioavailability in BDF1 mouse at 25 mg/kg after 2 to 24 hrs by HPLC analysis; format: ADME, organism-based; settings: in vivo
[3] = Oral bioavailability in BDF1 mouse at 50 mg/kg after 2 to 24 hrs by HPLC analysis; format: ADME, organism-based; settings: in vivo
[4] = target: T1, Aldehyde oxidase; test: Drug level in human plasma treated with [14C]momelotinib assessed as aldehyde oxidase mediated compound formation at 200 mg, po measured at 24 hrs interval for 504 hrs post dose by liquid scintillation counting; format: ADME, organism-based; settings: in vivo
[5] = Drug level in Beagle dog plasma treated with [14C]momelotinib at 15 mg/kg, po measured up to 12 hrs by liquid scintillation counting; format: ADME, organism-based, Canis lupus familiaris; settings: in vivo
[6] = target: T2, Aldehyde oxidase 1 (Rattus norvegicus, UniProt Q9Z0U5); test: Drug level in Sprague-Dawley rat plasma treated with [14C]momelotinib assessed as aldehyde oxidase mediated compound formation at 15 mg/kg, po measured up to 48 hrs by liquid scintillation counting; format: ADME, organism-based; settings: in vivo
T2 sequence (Q9Z0U5 whole entry): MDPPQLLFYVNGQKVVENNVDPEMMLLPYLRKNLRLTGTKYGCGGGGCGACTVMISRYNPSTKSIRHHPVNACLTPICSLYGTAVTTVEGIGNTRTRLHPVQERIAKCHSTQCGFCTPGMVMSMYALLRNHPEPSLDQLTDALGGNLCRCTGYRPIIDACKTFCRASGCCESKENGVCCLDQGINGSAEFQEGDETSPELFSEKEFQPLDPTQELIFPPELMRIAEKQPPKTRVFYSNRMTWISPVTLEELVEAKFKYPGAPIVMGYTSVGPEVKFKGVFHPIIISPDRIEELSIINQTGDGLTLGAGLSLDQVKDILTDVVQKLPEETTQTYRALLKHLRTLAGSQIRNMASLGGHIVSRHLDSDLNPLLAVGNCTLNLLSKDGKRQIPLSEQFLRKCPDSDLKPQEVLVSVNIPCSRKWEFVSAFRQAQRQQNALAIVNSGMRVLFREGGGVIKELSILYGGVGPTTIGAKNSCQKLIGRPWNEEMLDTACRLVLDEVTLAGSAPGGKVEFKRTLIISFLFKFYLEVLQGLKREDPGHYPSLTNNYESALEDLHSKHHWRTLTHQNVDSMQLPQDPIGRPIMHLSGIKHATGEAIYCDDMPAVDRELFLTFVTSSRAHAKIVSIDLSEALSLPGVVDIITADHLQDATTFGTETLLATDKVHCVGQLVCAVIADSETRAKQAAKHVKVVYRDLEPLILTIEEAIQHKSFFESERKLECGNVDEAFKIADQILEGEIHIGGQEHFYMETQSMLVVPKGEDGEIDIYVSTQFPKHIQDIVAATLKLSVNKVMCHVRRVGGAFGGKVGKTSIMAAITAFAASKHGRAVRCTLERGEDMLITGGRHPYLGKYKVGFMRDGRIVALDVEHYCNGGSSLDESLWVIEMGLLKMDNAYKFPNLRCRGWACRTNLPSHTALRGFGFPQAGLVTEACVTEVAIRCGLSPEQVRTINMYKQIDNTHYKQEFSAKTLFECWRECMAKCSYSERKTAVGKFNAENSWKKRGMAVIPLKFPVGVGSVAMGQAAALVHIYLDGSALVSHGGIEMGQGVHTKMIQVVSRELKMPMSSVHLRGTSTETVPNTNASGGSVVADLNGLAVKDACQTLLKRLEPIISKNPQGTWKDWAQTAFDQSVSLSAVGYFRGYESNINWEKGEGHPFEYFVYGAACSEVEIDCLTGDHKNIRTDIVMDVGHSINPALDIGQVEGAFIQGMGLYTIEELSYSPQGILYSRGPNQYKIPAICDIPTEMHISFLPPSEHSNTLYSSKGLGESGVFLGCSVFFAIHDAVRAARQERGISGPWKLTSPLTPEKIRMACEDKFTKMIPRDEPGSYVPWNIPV

[7] = target: T1, Aldehyde oxidase; test: Substrate activity at aldehyde oxidase in human liver cytosol assessed as enzyme-mediated M2 metabolite formation at 10 uM after 90 mins by LC-MS/MS analysis; format: ADME, subcellular
[8] = Drug level in human plasma treated with imrecoxib at 100 mg, po measured up to 96 hrs by UPLC/Q-TOF MS analysis; format: ADME, organism-based; settings: in vivo
[9] = target: T3, Aldehyde oxidase 1 (Cavia porcellus, UniProt H9TB17); test: Substrate activity at aldehyde oxidase in guinea pig liver cytosol assessed as enzyme-mediated drug uptake at 1 uM; format: ADME, subcellular
T3 sequence (H9TB17 whole entry): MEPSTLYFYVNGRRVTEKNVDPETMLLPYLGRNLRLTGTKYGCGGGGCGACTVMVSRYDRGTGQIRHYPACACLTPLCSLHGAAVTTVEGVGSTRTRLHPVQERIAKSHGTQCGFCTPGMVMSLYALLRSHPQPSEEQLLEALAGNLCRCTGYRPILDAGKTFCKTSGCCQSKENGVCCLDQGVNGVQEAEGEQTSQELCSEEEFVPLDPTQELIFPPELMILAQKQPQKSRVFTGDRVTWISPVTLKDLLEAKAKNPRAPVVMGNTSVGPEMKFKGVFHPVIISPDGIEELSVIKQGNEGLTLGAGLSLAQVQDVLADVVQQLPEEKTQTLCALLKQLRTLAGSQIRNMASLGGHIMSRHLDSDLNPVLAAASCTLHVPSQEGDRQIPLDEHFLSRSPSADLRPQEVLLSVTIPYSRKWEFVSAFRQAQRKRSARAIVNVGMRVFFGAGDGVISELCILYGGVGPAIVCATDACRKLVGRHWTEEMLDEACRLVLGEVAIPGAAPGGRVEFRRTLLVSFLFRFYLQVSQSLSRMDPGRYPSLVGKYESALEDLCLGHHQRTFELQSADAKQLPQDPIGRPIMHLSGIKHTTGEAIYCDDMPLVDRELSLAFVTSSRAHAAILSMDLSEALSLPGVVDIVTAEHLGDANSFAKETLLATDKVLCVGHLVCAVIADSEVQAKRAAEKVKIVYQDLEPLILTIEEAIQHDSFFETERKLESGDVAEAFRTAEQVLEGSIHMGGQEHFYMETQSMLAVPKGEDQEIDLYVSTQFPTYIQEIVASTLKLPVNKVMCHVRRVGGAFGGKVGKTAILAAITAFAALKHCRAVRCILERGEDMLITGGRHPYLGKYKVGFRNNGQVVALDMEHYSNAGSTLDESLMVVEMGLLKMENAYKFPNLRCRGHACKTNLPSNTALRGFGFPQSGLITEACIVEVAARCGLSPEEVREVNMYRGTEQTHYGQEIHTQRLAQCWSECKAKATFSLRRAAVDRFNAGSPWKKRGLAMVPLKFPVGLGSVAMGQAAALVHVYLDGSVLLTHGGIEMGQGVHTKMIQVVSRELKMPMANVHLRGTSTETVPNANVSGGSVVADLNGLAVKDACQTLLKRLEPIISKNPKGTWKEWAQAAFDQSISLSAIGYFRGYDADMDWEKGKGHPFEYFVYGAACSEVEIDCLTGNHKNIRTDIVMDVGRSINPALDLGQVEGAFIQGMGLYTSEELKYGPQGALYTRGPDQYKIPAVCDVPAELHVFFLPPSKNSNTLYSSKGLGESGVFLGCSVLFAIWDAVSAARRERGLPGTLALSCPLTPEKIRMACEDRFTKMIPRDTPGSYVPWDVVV

[10] = target: T1, Aldehyde oxidase; test: Substrate activity at aldehyde oxidase in human liver cytosol assessed as enzyme-mediated drug uptake at 1 uM; format: ADME, subcellular
[11] = target: T1, Aldehyde oxidase; test: Substrate activity at aldehyde oxidase in human hepatocytes assessed as enzyme-mediated drug uptake at 1 uM; format: ADME, cell-based
[12] = target: T2, Aldehyde oxidase 1; test: Substrate activity at aldehyde oxidase in rat liver cytosol assessed as enzyme-mediated drug uptake at 1 uM; format: ADME, subcellular
[13] = target: T4, Cytochrome P450 3A4 (Homo sapiens, UniProt P08684); test: Substrate activity at human CYP3A4 assessed as increase in methyl-prednisolone AUC relative to control; format: ADME
[14] = target: T4, Cytochrome P450 3A4; test: Substrate activity at human CYP3A4 assessed as increase in midazolam AUC relative to control; format: ADME
[15] = target: T4, Cytochrome P450 3A4; test: Substrate activity at human CYP3A4 assessed as increase in atorvastatin AUC relative to control; format: ADME
[16] = Clearance in human plasma; format: ADME, cell-free
[17] = Oral bioavailability in human; format: ADME, organism-based; settings: in vivo
[18] = target: T2, Aldehyde oxidase 1; test: Substrate activity at aldehyde oxidase in rat liver cytosol assessed as enzyme-mediated drug uptake by mass spectrophotometric analysis; format: ADME, subcellular
[19] = target: T3, Aldehyde oxidase 1; test: Substrate activity at aldehyde oxidase in guinea pig liver cytosol assessed as enzyme-mediated drug uptake by mass spectrophotometric analysis; format: ADME, subcellular
[20] = target: T1, Aldehyde oxidase; test: Substrate activity at aldehyde oxidase in human liver cytosol assessed as enzyme-mediated drug uptake by mass spectrophotometric analysis; format: ADME, subcellular

T4 sequence (P08684 whole entry): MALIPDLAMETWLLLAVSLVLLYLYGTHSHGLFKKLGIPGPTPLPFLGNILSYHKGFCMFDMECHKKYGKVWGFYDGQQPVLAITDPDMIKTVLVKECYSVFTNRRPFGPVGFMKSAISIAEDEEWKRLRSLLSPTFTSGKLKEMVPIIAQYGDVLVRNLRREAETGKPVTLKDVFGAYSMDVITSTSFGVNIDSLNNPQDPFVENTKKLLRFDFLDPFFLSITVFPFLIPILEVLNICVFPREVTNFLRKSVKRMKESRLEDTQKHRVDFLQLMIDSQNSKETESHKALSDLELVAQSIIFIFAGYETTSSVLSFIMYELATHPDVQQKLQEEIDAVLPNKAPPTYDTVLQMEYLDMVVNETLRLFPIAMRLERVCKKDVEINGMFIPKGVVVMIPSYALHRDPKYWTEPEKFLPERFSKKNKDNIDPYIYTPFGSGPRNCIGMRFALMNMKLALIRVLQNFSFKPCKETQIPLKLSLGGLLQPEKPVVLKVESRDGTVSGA

N=C(N)NC(=O)c1cnn(-c2ccc3ncccc3c2)c1C1CC1
t1/2 [1]: < 0.083 h

Oc1ncc(F)cn1
bioavailability [2]: 100% | bioavailability [3]: 78%

N#CCNC(=O)c1ccc(-c2ccnc(Nc3ccc(N4CCOCC4=O)cc3)n2)cc1
Drug uptake [4]: 64.2% | Drug uptake [5]: < 10% | Drug uptake [6]: < 10%

COCCc1c(C(=O)NC(=N)N)cnn1-c1cccc2ncccc12
t1/2 [1]: 2 h

CCCN1CC(c2ccc(S(C)(=O)=O)cc2)=C(c2ccc(C=O)cc2)C1=O
Activity [7]: 77%

CCCN1CC(c2ccc(S(C)(=O)=O)cc2)=C(c2ccc(C(=O)O)cc2)C1=O
Drug uptake [8]: 68%

CCNC(=O)OC1CCN(c2nncc3cc(OC)c(OC)cc23)CC1 [CARBAZERAN]
K [9]: 3.6 to 6.1 | K [10]: 3.6 to 6.1 | K [11]: 1.5 | K [12]: 3.6 to 6.1

CC[C@@](C)(Nc1ccnc(-c2c[nH]c3ncccc23)n1)C(=O)NCC(F)(F)F [DECERNOTINIB]
fold change (FC) [13]: 4.3 | fold change (FC) [14]: 12 | fold change (FC) [15]: 2.7

Cn1cc(-c2ccc3nnc(C(F)(F)c4ccc5ncccc5c4)n3n2)cn1 [JNJ-38877605]
clearance [16]: 12 mL/min/kg

Nc1nc2c(ncn2CCC(CO)CO)c(=O)[nH]1 [PENCICLOVIR]
bioavailability [17]: 77%

c1ccc2cnncc2c1 [PHTHALAZINE]
K [18]: 4.7 to 5.1 | K [19]: 4.7 to 5.1 | K [20]: 4.7 to 5.1

c1ccc2ncccc2c1 [QUINOLINE]
K [9]: 3.6 to 6.1 | K [10]: 3.6 to 6.1 | K [12]: 3.6 to 6.1

c1ccc2nccnc2c1 [QUINOXALINE]
K [18]: 4.7 to 5.1 | K [19]: 4.7 to 5.1 | K [20]: 4.7 to 5.1

N=C(N)NC(=O)c1cnn(-c2cccc3ncccc23)c1C1CC1 [ZONIPORIDE]
K [9]: 3.6 to 6.1 | K [10]: 3.6 to 6.1 | K [11]: 1.9 | K [12]: 3.6 to 6.1
